This is an account of results in patent publication US20220378814A1, “COMPOSITION OF PHYTONUTRIENTS FOR OBESITY PREVENTION” (ROSEMAN UNIVERSITY OF HEALTH SCIENCES, priority 2021, published 2022).

Several values for one entry are separate records, joined by “and”; a condition that tells them apart may be missing. Equal values may be shown once.

The subject of the test is human primary preadipocytes. The experiment in a line: Suppression of adipogenesis in cultures of human primary preadipocytes (EC50). The format is cell-based.
What is called EC50 is the concentration needed to bring the measured effect to its halfway point. Higher therefore signals weaker potency. As for `Oc1ccc(/C=C/c2cc(O)cc(O)c2)cc1` [Phytonutrient C3, Resveratrol], the EC50 is 40 µM and 9.1 µg/mL.

As for `COc1cc(/C=C/C(=O)/C=C(O)/C=C/c2ccc(O)c(OC)c2)ccc1O` [Phytonutrient C9, Curcumin], the EC50 was 20 µM and 7.5 µg/mL.

Consider `COc1ccc2cc3[n+](cc2c1OC)CCc1cc2c(cc1-3)OCO2` [Phytonutrient C1, Berberine], for which the EC50 was 10 µM and 3.5 µg/mL.

As for `O=c1cc(-c2ccc(O)c(O)c2)oc2cc(O)cc(O)c12` [Phytonutrient C2, Luteolin], the EC50 was 20 µM and 5.7 µg/mL.

Consider `O=c1c(O)c(-c2ccc(O)c(O)c2)oc2cc(O)ccc12` [Phytonutrient C4, Fisetin], for which the EC50 was 50 µM and 14.3 µg/mL.

Turning to `O=c1c(O)c(-c2ccc(O)c(O)c2)oc2cc(O)cc(O)c12` [Phytonutrient C5, Quercetin], the concentration for a half-maximal effect (EC50) was 25 µM and 7.6 µg/mL.

`O=C(OC1Cc2c(O)cc(O)cc2OC1c1cc(O)c(O)c(O)c1)c1cc(O)c(O)c(O)c1` (stereo not shown) [Phytonutrient C7, Epigallocatechin Gallate (EGCG)]: the EC50 is 20 µM and 9.2 µg/mL.
